82 compounds from the Kinase Knowledgebase extract (Sharma et al. 2016) can be followed below.

The target in one assay is CDK2 (UniProt P24941). In words: Enzyme Assay.
Settings: not given
As for `N#CCc1ccc(CNC(=O)c2ccc(Nc3nc(N)c(C(=O)c4c(F)cccc4F)s3)cc2)cc1`, the Ki was 0.025 µM. In other words, the double-digit nanomolar range.

In turn, `Cn1cccc1CNC(=O)c1ccc(Nc2nc(N)c(C(=O)c3c(F)cccc3F)s2)cc1` gave a Ki of 0.02 µM.

The compound `C[C@H](CN(C)C)N(C)C(=O)c1ccc(Nc2nc(N)c(C(=O)c3c(F)cccc3F)s2)cc1` displayed a Ki of 0.111 µM. Against the preceding compound, the Ki is about 5.5-fold higher.

The assay is the same for the next values; noted with them: concentration not given here.
For `CC(=O)c1ccc(NC(=O)c2ccc(Nc3nc(N)c(C(=O)c4c(F)cccc4F)s3)cc2)cc1`, the inhibition was -5%.

Regarding `COc1ccc(C(=O)NC(=O)c2ccc(Nc3nc(N)c(C(=O)c4c(F)cccc4F)s3)cc2)cc1N`, the inhibition came to 15%.

`CCCCN(CC#N)C(=O)c1ccc(Nc2nc(N)c(C(=O)c3c(F)cccc3F)s2)cc1`: the inhibition was -1%.

For the compound `Nc1nc(Nc2ccc(C(=O)N3CCC(CO)CC3)cc2)sc1C(=O)c1c(F)cccc1F`, the inhibition was -14%.

Regarding `CSc1ccc(NC(=O)c2ccc(Nc3nc(N)c(C(=O)c4c(F)cccc4F)s3)cc2)cc1`, the inhibition is -25%.

For `Nc1nc(Nc2ccc(C(=O)NCCOCCO)cc2)sc1C(=O)c1c(F)cccc1F`, the inhibition is -9%.

With `CC(C)C(C)NC(=O)c1ccc(Nc2nc(N)c(C(=O)c3c(F)cccc3F)s2)cc1` (configuration not stated), the inhibition was -20%.

With `CN(Cc1ccccc1Cl)C(=O)c1ccc(Nc2nc(N)c(C(=O)c3c(F)cccc3F)s2)cc1`, the inhibition was -30%.

With `CN(C(=O)c1ccc(Nc2nc(N)c(C(=O)c3c(F)cccc3F)s2)cc1)C1CCCCC1`, the inhibition is -2%.

Turning to `Nc1nc(Nc2ccc(C(=O)NCCCO)cc2)sc1C(=O)c1c(F)cccc1F`, the inhibition is -2%.

Consider `CCCCN(CCO)C(=O)c1ccc(Nc2nc(N)c(C(=O)c3c(F)cccc3F)s2)cc1`, for which the inhibition is -7%.

With `Nc1nc(Nc2ccc(C(=O)NCCc3cccc(F)c3)cc2)sc1C(=O)c1c(F)cccc1F`, the inhibition was -6%.

As to `CCC(C)CN(CCO)C(=O)c1ccc(Nc2nc(N)c(C(=O)c3c(F)cccc3F)s2)cc1` (configuration not stated), the inhibition is -11%.

In the case of `Nc1nc(Nc2ccc(C(=O)NCCCCCO)cc2)sc1C(=O)c1c(F)cccc1F`, the inhibition is -4%.

Take `CN(C)CCCCCCNC(=O)c1ccc(Nc2nc(N)c(C(=O)c3c(F)cccc3F)s2)cc1`: the inhibition is -16%.

`Nc1nc(Nc2ccc(C(=O)NC3CC3)cc2)sc1C(=O)c1c(F)cccc1F`: the inhibition was -5%.

For `CCCN(C(=O)c1ccc(Nc2nc(N)c(C(=O)c3c(F)cccc3F)s2)cc1)C(C)CC` (configuration not stated), the inhibition is -16%.

`Nc1nc(Nc2ccc(C(=O)Nc3ccc(Cl)nc3)cc2)sc1C(=O)c1c(F)cccc1F`: the inhibition was -9%.

As to `CCCCN(CCCC)C(=O)c1ccc(Nc2nc(N)c(C(=O)c3c(F)cccc3F)s2)cc1`, the inhibition is -7%.

For the compound `CCOc1cccc(NC(=O)c2ccc(Nc3nc(N)c(C(=O)c4c(F)cccc4F)s3)cc2)c1`, the inhibition was -7%.

In the case of `CN(CC(O)CO)C(=O)c1ccc(Nc2nc(N)c(C(=O)c3c(F)cccc3F)s2)cc1` (configuration not stated), the inhibition was 0%.

As for `Nc1nc(Nc2ccc(CCO)cc2)sc1C(=O)c1c(F)cccc1F`, the inhibition came out at 19%.

With `COCCCNC(=O)c1ccc(Nc2nc(N)c(C(=O)c3c(F)cccc3F)s2)cc1`, the inhibition is -24%.

Take `CC1CC(NC(=O)c2ccc(Nc3nc(N)c(C(=O)c4c(F)cccc4F)s3)cc2)CC(C)(C)C1` (configuration not stated): the inhibition was -11%.

For the compound `Nc1nc(Nc2ccc(C(=O)N[C@H](CO)CC3CCCCC3)cc2)sc1C(=O)c1c(F)cccc1F`, the inhibition was -7%.

Consider `Nc1nc(Nc2ccc(C(=O)Nc3ccc(Cl)cc3CO)cc2)sc1C(=O)c1c(F)cccc1F`, for which the inhibition is -11%.

Regarding `CC(C)N(Cc1ccccc1)c1ccc(NC(=O)c2ccc(Nc3nc(N)c(C(=O)c4c(F)cccc4F)s3)cc2)cc1`, the inhibition is -4%.

On to `Nc1nc(Nc2ccc(C(=O)N3CCN(CCO)CC3)cc2)sc1C(=O)c1c(F)cccc1F`, for which the inhibition was -43%.

On to `CC(=O)N[C@@H]1CCN(C(=O)c2ccc(Nc3nc(N)c(C(=O)c4c(F)cccc4F)s3)cc2)C1`, for which the inhibition is -7%.

Turning to `CCCN(CCC#N)C(=O)c1ccc(Nc2nc(N)c(C(=O)c3c(F)cccc3F)s2)cc1`, the inhibition is -12%.

In the case of `Nc1nc(Nc2ccc(C(=O)N(CCCCO)Cc3ccccc3)cc2)sc1C(=O)c1c(F)cccc1F`, the inhibition is 0%.

With `Cc1ccc(NC(=O)c2ccc(Nc3nc(N)c(C(=O)c4c(F)cccc4F)s3)cc2)c(F)c1`, the inhibition is -30%.

Regarding `Nc1nc(Nc2ccc(C(=O)Nc3ccc(Nc4ccccc4)cc3)cc2)sc1C(=O)c1c(F)cccc1F`, the inhibition is -6%.

Turning to `COC(=O)c1ccccc1NC(=O)c1ccc(Nc2nc(N)c(C(=O)c3c(F)cccc3F)s2)cc1`, the inhibition is -4%.

`N#CCCN(Cc1cccnc1)C(=O)c1ccc(Nc2nc(N)c(C(=O)c3c(F)cccc3F)s2)cc1`: the inhibition is -2%.

Regarding `C=CCN(C)C(=O)c1ccc(Nc2nc(N)c(C(=O)c3c(F)cccc3F)s2)cc1`, the inhibition was -6%.

Turning to `COCCN(CCOC)C(=O)c1ccc(Nc2nc(N)c(C(=O)c3c(F)cccc3F)s2)cc1`, the inhibition was -4%.

Turning to `CCN(CC)CCCN(C)C(=O)c1ccc(Nc2nc(N)c(C(=O)c3c(F)cccc3F)s2)cc1`, the inhibition was -27%.

With `CC(C)CCCC(C)NC(=O)c1ccc(Nc2nc(N)c(C(=O)c3c(F)cccc3F)s2)cc1` (configuration not stated), the inhibition turned out to be 0%.

`Nc1nc(Nc2ccc(C(=O)Nc3cccc(OC(F)(F)F)c3)cc2)sc1C(=O)c1c(F)cccc1F`: the inhibition is -31%.

As for `Nc1nc(Nc2ccc(C(=O)NCCCCO)cc2)sc1C(=O)c1c(F)cccc1F`, the inhibition was -12%.

On to `COCCN(C)C(=O)c1ccc(Nc2nc(N)c(C(=O)c3c(F)cccc3F)s2)cc1`, for which the inhibition was -16%.

In the case of `Nc1nc(Nc2ccc(C(=O)NCCCCCCO)cc2)sc1C(=O)c1c(F)cccc1F`, the inhibition was -5%.

For the compound `Nc1nc(Nc2ccc(C(=O)Nc3ccon3)cc2)sc1C(=O)c1c(F)cccc1F`, the inhibition is -1%.

`Nc1nc(Nc2ccc(C(=O)NCCc3ccncc3)cc2)sc1C(=O)c1c(F)cccc1F`: the inhibition is -11%.

For the compound `CN(C)CCCCNC(=O)c1ccc(Nc2nc(N)c(C(=O)c3c(F)cccc3F)s2)cc1`, the inhibition was -4%.

Regarding `Nc1nc(Nc2ccc(C(=O)Nc3ccc(Cl)cc3)cc2)sc1C(=O)c1c(F)cccc1F`, the inhibition was -10%.

Consider `Cc1cc(C)cc(NC(=O)c2ccc(Nc3nc(N)c(C(=O)c4c(F)cccc4F)s3)cc2)c1`, for which the inhibition was -3%.

Consider `Cc1ccc(O)c(NC(=O)c2ccc(Nc3nc(N)c(C(=O)c4c(F)cccc4F)s3)cc2)c1`, for which the inhibition was -6%.

`Nc1nc(Nc2ccc(C(=O)NCCC3OCCO3)cc2)sc1C(=O)c1c(F)cccc1F`: the inhibition was -10%.

Consider `Nc1nc(Nc2ccc(C(=O)N3CCCCC3CCO)cc2)sc1C(=O)c1c(F)cccc1F` (configuration not stated), for which the inhibition is -24%.

On to `Nc1nc(Nc2ccc(C(=O)NCC(O)CO)cc2)sc1C(=O)c1c(F)cccc1F` (configuration not stated), for which the inhibition was -2%.

In the case of `Nc1nc(Nc2ccc(C(=O)NCCc3c(Cl)cccc3Cl)cc2)sc1C(=O)c1c(F)cccc1F`, the inhibition is -21%.

Consider `Nc1nc(Nc2ccc(C(=O)N[C@H](CO)Cc3ccccc3)cc2)sc1C(=O)c1c(F)cccc1F`, for which the inhibition was -14%.

On to `Nc1nc(Nc2ccc(C(=O)NCC3CC3)cc2)sc1C(=O)c1c(F)cccc1F`, for which the inhibition came out at 0%.

For the compound `CC(CNC(=O)c1ccc(Nc2nc(N)c(C(=O)c3c(F)cccc3F)s2)cc1)N(C)C` (configuration not stated), the inhibition is -7%.

On to `CC(C)C[C@@H](CO)NC(=O)c1ccc(Nc2nc(N)c(C(=O)c3c(F)cccc3F)s2)cc1`, for which the inhibition was -16%.

For `Nc1nc(Nc2ccc(C(=O)Nc3cccc(Br)c3)cc2)sc1C(=O)c1c(F)cccc1F`, the inhibition was -8%.

Turning to `N#CCCN(CC1CCCO1)C(=O)c1ccc(Nc2nc(N)c(C(=O)c3c(F)cccc3F)s2)cc1` (configuration not stated), the inhibition is -5%.

Turning to `Cc1cccc(NC(=O)c2ccc(Nc3nc(N)c(C(=O)c4c(F)cccc4F)s3)cc2)c1`, the inhibition was -7%.

On to `CN(CCc1ccccc1)C(=O)c1ccc(Nc2nc(N)c(C(=O)c3c(F)cccc3F)s2)cc1`, for which the inhibition is -12%.

Regarding `Cc1cc(NC(=O)c2ccc(Nc3nc(N)c(C(=O)c4c(F)cccc4F)s3)cc2)ccc1C(C)C`, the inhibition is -5%.

As for `Nc1nc(Nc2ccc(C(=O)NCCc3ccccc3)cc2)sc1C(=O)c1c(F)cccc1F`, the inhibition was -19%.

Turning to `Nc1nc(Nc2ccc(O)cc2)sc1C(=O)c1c(F)cccc1F`, the inhibition was determined as 23%.

Consider `C=CCN(CC=C)C(=O)c1ccc(Nc2nc(N)c(C(=O)c3c(F)cccc3F)s2)cc1`, for which the inhibition was -20%.

As for `CN(Cc1ccco1)C(=O)c1ccc(Nc2nc(N)c(C(=O)c3c(F)cccc3F)s2)cc1`, the inhibition was -3%.

Regarding `COC(CN(C)C(=O)c1ccc(Nc2nc(N)c(C(=O)c3c(F)cccc3F)s2)cc1)OC`, the inhibition was -7%.

Consider `Nc1nc(Nc2ccc(C(=O)N3CCSC3)cc2)sc1C(=O)c1c(F)cccc1F`, for which the inhibition is -3%.

With `Cc1ccc(NC(=O)c2ccc(Nc3nc(N)c(C(=O)c4c(F)cccc4F)s3)cc2)cc1Cl`, the inhibition was -1%.

With `CSCC[C@@H](CO)NC(=O)c1ccc(Nc2nc(N)c(C(=O)c3c(F)cccc3F)s2)cc1`, the inhibition was -5%.

Regarding `COCC(C)NC(=O)c1ccc(Nc2nc(N)c(C(=O)c3c(F)cccc3F)s2)cc1` (configuration not stated), the inhibition was -2%.

For the compound `COc1ccc(CCN(C)C(=O)c2ccc(Nc3nc(N)c(C(=O)c4c(F)cccc4F)s3)cc2)cc1OC`, the inhibition is -3%.

`Nc1nc(Nc2ccc(C(=O)N3CCOCC3)cc2)sc1C(=O)c1c(F)cccc1F`: the inhibition is -4%.

For `CCN(CC)CCN1CCN(C(=O)c2ccc(Nc3nc(N)c(C(=O)c4c(F)cccc4F)s3)cc2)CC1`, the inhibition is -10%.

As to `CCN(CCO)C(=O)c1ccc(Nc2nc(N)c(C(=O)c3c(F)cccc3F)s2)cc1`, the inhibition was -16%.

Turning to `CC(C)C(CO)NC(=O)c1ccc(Nc2nc(N)c(C(=O)c3c(F)cccc3F)s2)cc1` (configuration not stated), the inhibition is -3%.

As for `Cc1cc(NC(=O)c2ccc(Nc3nc(N)c(C(=O)c4c(F)cccc4F)s3)cc2)ccc1F`, the inhibition is -1%.

For `CC(C)c1cccc(NC(=O)c2ccc(Nc3nc(N)c(C(=O)c4c(F)cccc4F)s3)cc2)c1`, the inhibition was -12%.

For `CCN(C)C(=O)c1ccc(Nc2nc(N)c(C(=O)c3c(F)cccc3F)s2)cc1`, the inhibition was -12%.

Usually Ki stands for a measure of affinity in units of concentration, obtained from inhibition or displacement. As usually defined, the inhibition is the drop in the measured response relative to a control, in per cent.
